# Where two headings read alike, the source gives them in different places.
# Columns and labels:
# [1] = one dose of zinc, blood samples at 0-4 hours, n=12, ANOVA+Tukey p<0.05
# Protocol: FIG. 2. Relative zinc absorption from three different forms of zinc. Subjects (n=12) were given one dose of zinc with blood samples taken at 0, 1, 2, 3, and 4 hours. Erythrocyte (red blood cell) zinc was analyzed for each time point with area under the curve used as a measure of relative absorption. The order of the different forms of zinc was randomly determined for each subject. A washout of at least 2 weeks occurred between testings of the different forms of zinc. Values are means±SD.
# Zinc is important in maintaining the health of an eye's retina and is an essential part of more than 100 enzymes involved in digestion, metabolism, reproduction, and wound healing. […] (FIG. 3).
# [2] = 60 mg/day zinc for 6 weeks
# Protocol: Plasma zinc (μg/ml) response to zinc supplementation as gluconate (GLUC) or glycinate chelate (CHE). Young adult females were given 60 mg/day zinc for 6 weeks.
# [3] = test system: plasma extracellular superoxide dismutase; settings: rats fed the copper at adequate level for 6 weeks, unpaired t-test P<0.01
# Excerpt: FIG. 4. Comparison of adequate copper intake as sulfate or glycinate for effects on plasma extracellular superoxide dismutase activities in rats. Rats were fed the copper for 6 weeks. […] Values are means±SD in activity units/ml.
# Copper is another important cofactor for metalloenzymes, and is a second necessary cofactor for superoxide dismutase.
# [4] = Coenzyme Q supplementation effect on serum vitamin C; type: in vivo
# Excerpt: FIG. 1. Coenzyme Q supplementation effect on serum vitamin C (μg/ml). Subjects (N=12) were given coenzyme Q for 2 weeks with blood taken pre and post intervention. Values are means±SD.
# Coenzyme Q has antioxidant properties. This molecule is found in the diet and is made by the body. Body production declines with age. Absorption of orally ingested coenzyme Q can be low, though certain forms work better than others.
compound,measurement,setting,value
NCC(=O)[O-].NCC(=O)[O-].[Zn+2] [zinc glycinate],relative zinc absorption (erythrocyte zinc area under the curve),[1],better absorbed than zinc oxide
same,relative zinc absorption (erythrocyte zinc area under the curve),[1]; listed as Zinc chelate,differed from the other two groups
same,"plasma zinc (μg/ml), post treatment vs pre-treatment",[2],significantly different from pre-treatment
NCC(=O)[O-].NCC(=O)[O-].[Cu+2] [copper glycinate],plasma extracellular superoxide dismutase activities (activity units/ml),[3],higher activities of a plasma copper enzyme than copper sulfate
same,plasma extracellular superoxide dismutase activities (activity units/ml),[3]; listed as Glycinate,significantly different from sulfate values
COC1=C(OC)C(=O)C(C/C=C(\C)CC/C=C(\C)CC/C=C(\C)CC/C=C(\C)CC/C=C(\C)CC/C=C(\C)CC/C=C(\C)CC/C=C(\C)CC/C=C(\C)CCC=C(C)C)=C(C)C1=O [Coenzyme Q],"serum vitamin C (μg/ml), post-values vs pre-values","[4]; coenzyme Q for 2 weeks, N=12, paired t-test P<0.001",significantly different from pre-values
same,plasma concentrations of active vitamin C,"[4]; well-absorbed form of coenzyme Q, FIG. 1",greatly increase plasma concentrations of active vitamin C
zinc gluconate [reference compound],"plasma zinc (μg/ml), post treatment vs pre-treatment",[2],statistically significant decrease
